In BindingDB's records for doi:10.1021/jm980718d (University of Massachusetts Medical Center, 1999):

Molecular target: Uracil-DNA glycosylase (Human herpesvirus 1) (UniProt P10186)
Test: Inhibitory potency against HSV-1 Uracil-DNA glycosylase

Chain of Uracil-DNA glycosylase (Human herpesvirus 1) (P10186 whole entry, looked up): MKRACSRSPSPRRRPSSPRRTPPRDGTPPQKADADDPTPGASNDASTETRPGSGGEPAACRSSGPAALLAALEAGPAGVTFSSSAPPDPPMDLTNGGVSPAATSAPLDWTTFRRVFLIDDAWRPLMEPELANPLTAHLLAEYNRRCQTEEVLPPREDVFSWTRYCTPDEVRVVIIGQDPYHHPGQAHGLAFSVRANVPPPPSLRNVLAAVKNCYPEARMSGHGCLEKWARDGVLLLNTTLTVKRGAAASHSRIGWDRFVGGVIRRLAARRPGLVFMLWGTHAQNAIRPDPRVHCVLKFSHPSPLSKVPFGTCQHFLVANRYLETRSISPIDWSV

Row | IC50 [µM] | Compound
1 | 25 | CCCCCCCCOc1ccc(Nc2cc(=O)[nH]c(=O)[nH]2)cc1 [6-(4-Octyloxy-phenylamino)-1H-pyrimidine-2,4-dione]
2 | 15 | CCCCCCCCc1ccc(Nc2cc(=O)[nH]c(=O)n2CCOC)cc1 [1-(2-Methoxy-ethyl)-6-(4-octyl-phenylamino)-1H-pyrimidine-2,4-dione]
3 | 8 | CCCCCCCCc1ccc(Nc2cc(=O)[nH]c(=O)[nH]2)cc1 [6-(4-Octyl-phenylamino)-1H-pyrimidine-2,4-dione]
4 | 35 | CCCCCCCCCCc1ccc(Nc2cc(=O)[nH]c(=O)[nH]2)cc1 [6-(4-Decyl-phenylamino)-1H-pyrimidine-2,4-dione]
5 | 10 | CCCCCCCCc1ccc(Nc2cc(=O)[nH]c(=O)n2CCO)cc1 [1-(2-Hydroxy-ethyl)-6-(4-octyl-phenylamino)-1H-pyrimidine-2,4-dione]
6 | 150 | CCCCCCCCc1ccc(Oc2cc(=O)[nH]c(=O)[nH]2)cc1 [6-(4-Octyl-phenoxy)-1H-pyrimidine-2,4-dione]

Molecular target: Uracil-DNA glycosylase (Human herpesvirus 1) (UniProt P10186)
Test: Inhibitory potency against HSV-1 UDG (Herpes Simplex virus type-I Uracil DNA glycosylase)

Row | Compound | IC50 [µM]
7 | CCCCCCc1ccc(Nc2cc(=O)[nH]c(=O)n2CCOC)cc1 [6-(4-Hexyl-phenylamino)-1-(2-methoxy-ethyl)-1H-pyrimidine-2,4-dione] | > 100
8 | CCCCCCc1ccc(Nc2cc(=O)[nH]c(=O)n2CCCOC)cc1 [6-(4-Hexyl-phenylamino)-1-(3-methoxy-propyl)-1H-pyrimidine-2,4-dione] | > 100
9 | CCc1ccc(Nc2cc(=O)[nH]c(=O)[nH]2)cc1 [6-(4-Ethyl-phenylamino)-1H-pyrimidine-2,4-dione] | 500

Continued, values first:

Row | IC50 [µM] | Compound
10 | 30 | CCCCCCOc1ccc(Nc2cc(=O)[nH]c(=O)[nH]2)cc1 [6-(4-Hexyloxy-phenylamino)-1H-pyrimidine-2,4-dione]
11 | 30 | CCCCCCc1ccc(Nc2cc(=O)[nH]c(=O)[nH]2)cc1 [6-(4-Hexyl-phenylamino)-1H-pyrimidine-2,4-dione]
12 | 20 | CCCCCCc1ccc(Nc2cc(=O)[nH]c(=O)n2CCO)cc1 [6-(4-Hexyl-phenylamino)-1-(2-hydroxy-ethyl)-1H-pyrimidine-2,4-dione]
13 | 90 | CCCCCCc1ccc(Nc2cc(=O)[nH]c(=O)n2CCCO)cc1 [6-(4-Hexyl-phenylamino)-1-(3-hydroxy-propyl)-1H-pyrimidine-2,4-dione]
